The target in this assay is T1, Leukotriene C4 synthase (Homo sapiens, UniProt Q16873).
T1 sequence (Q16873 whole entry): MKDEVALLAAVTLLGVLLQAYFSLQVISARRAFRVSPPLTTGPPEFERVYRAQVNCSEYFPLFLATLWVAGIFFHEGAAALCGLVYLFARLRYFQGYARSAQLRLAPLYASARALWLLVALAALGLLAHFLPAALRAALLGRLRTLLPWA
Kind of assay: Recombinant human LTC4 synthase is expressed in […] and the purified enzyme is dissolved in 25 mM tris-buffer pH 7.8 supplemented with 0.1 mM glutathione (GSH) and stored at −80 °C. […] The buffer is used as background. Runs are performed in duplicates. […] The reaction is stopped after 1 min by addition of double the reaction volume of a stop solution (MeOH:H2O:acetic acid 70:30:1).

SMILES strings stand for the structures.

By IC50 is commonly meant the concentration at which inhibition is half-maximal. As to `COc1cc(N(Cc2cc(Cl)cc3c2OCO3)CC2CC2)cnc1C(=O)C1CC1C(=O)O` (stereo not given), the IC50 was determined as 0.588 µM.

For `COc1cc(N(Cc2ccc(C(F)(F)F)cc2F)CC2CC2)cnc1C(=O)C1CC1C(=O)O` (stereo not given), the IC50 was found to be 0.053 µM.

In the case of `COc1cc(N(Cc2ccc(-c3ccccc3)cc2)CC2CC2)cnc1C(=O)C1CC1C(=O)O` (stereo not given), the IC50 is 2.18 µM.

`COc1cc(N(Cc2cccc3ccccc23)CC2CC2)cnc1C(=O)C1CC1C(=O)O` (stereo not given): the IC50 turned out to be 0.066 µM.

For `COc1cc(N(Cc2cccc(C)c2)CC2CC2)cnc1C(=O)C1CC1C(=O)O` (stereo not given), the IC50 turned out to be 0.171 µM.

Consider `COc1cc(N(CC2CC2)c2cccc3c(C)ccnc23)cnc1C(=O)C1CC1C(=O)O` (stereo not given), for which the IC50 came out at 0.445 µM.

As to `COc1cc(N(Cc2ccc(C)cc2)CC2CC2)cnc1C(=O)C1CC1C(=O)O` (stereo not given), the IC50 is 0.022 µM.

For `COc1cc(N(Cc2cc(F)cc3c2OCOC3)CC2CC2)cnc1C(=O)C1CC1C(=O)O` (stereo not given), the IC50 was 0.478 µM.

Consider `COc1cc(N(Cc2c(Cl)cccc2Cl)CC2CC2)cnc1C(=O)C1CC1C(=O)O` (stereo not given), for which the IC50 turned out to be 0.8 µM.

As for `COc1cc(N(CC2CC2)c2ccc(C)c3ccccc23)ncc1C(=O)C1CC1C(=O)O` (stereo not given), the IC50 was found to be 0.056 µM.
